# Assay results: paper PMC11915375 (ACS Infectious Diseases, 2025)
# Like-named read-outs stand apart in the source and are kept apart here.
# Legend:
# [1] = system: Leishmania major amastigotes; assay: Leishmania major amastigote assay; format: cell-based; conditions: Leishmania major, read-out: L. maj EC50
# S. mansoni adult worms = assay: S. mansoni adult worm phenotypic assay; format: cell-based, Schistosoma mansoni; conditions: scale 0-4
# T. cruzi CA-I/72 = assay: T. cruzi in vitro assay, C2C12 host cell; format: cell-based, Trypanosoma cruzi; conditions: Trypanosoma cruzi, C2C12, read-out: T. cruzi EC50
# T. brucei [2] = assay: T. brucei proliferation inhibition assay; format: cell-based, Trypanosoma brucei; conditions: Trypanosoma brucei, read-out: T. brucei EC50 ± S.D.
# T. brucei [3] = conditions: read-out: T. brucei EC50; assay run at NYU; cited from earlier work
# T. cruzi = conditions: read-out: T. cruzi EC50; different host cell line (NIH3T3), assay run at NYU; cited from earlier work
# [4] = system: Leishmania major amastigotes; conditions: read-out: L. maj EC50; 12a, 12b previously reported compounds; cited from earlier work
# L. donovani = L. donovani in vitro assay; format: cell-based, Leishmania donovani; conditions: Leishmania donovani, read-out: L. don EC50, B10R host cell line
SMILES,EC50 [1],Adult severity score (10 µM) 5 h (S. mansoni adult worms),EC50 (T. cruzi CA-I/72),EC50 (T. brucei [2]),EC50 (T. brucei [3]),EC50 (T. cruzi),EC50 [4],EC50 (L. donovani)
"COc1ccc(Nc2cnnc3cc(-c4ccc(S(=O)(=O)N5CCN(C)CC5)cc4)ccc23)cc1Cl [Compound 17b, N-(3-Chloro-4-methoxyphenyl)-7-(4-((4-methylpiperazin-1-yl)sulfonyl)phenyl)cinnolin-4-amine]",> 1.9 µM,4,> 10 µM,8.3 ± 0.35 µM,–,–,–,–
"CN1CCN(S(=O)(=O)c2ccc(-c3ccc4nncc(Nc5ccc(OCc6cccc(F)c6)c(Cl)c5)c4c3)cc2)CC1 [Compound 12a, N-(3-Chloro-4-((3-fluorobenzyl)oxy)phenyl)-6-(4-((4-methylpiperazin-1-yl)sulfonyl)phenyl)cinnolin-4-amine]",–,–,–,–,0.98 µM,> 50 µM,1.9 µM,–
"CN1CCN(S(=O)(=O)c2ccc(-c3ccc4c(Nc5ccc(OCc6cccc(F)c6)c(Cl)c5)cnnc4c3)cc2)CC1 [Compound 12b, N-(3-Chloro-4-((3-fluorobenzyl)oxy)phenyl)-7-(4-((4-methylpiperazin-1-yl)sulfonyl)phenyl)cinnolin-4-amine]",–,–,–,–,1 µM,3.1 µM,2 µM,–
"Cc1ccc(Nc2cnnc3ccc(-c4ccc(S(=O)(=O)N5CCN(C)CC5)cc4)cc23)cn1 [Compound 13a, 6-(4-((4-Methylpiperazin-1-yl)sulfonyl)phenyl)-N-(6-methylpyridin-3-yl)cinnolin-4-amine]",> 21 µM,–,8.2 µM,1.3 ± 0.027 µM,–,–,–,> 10 µM
"COc1cnc(Nc2cnnc3ccc(-c4ccc(S(=O)(=O)N5CCN(C)CC5)cc4)cc23)nc1 [Compound 21a, N-(5-Methoxypyrimidin-2-yl)-6-(4-((4-methylpiperazin-1-yl)sulfonyl)phenyl)cinnolin-4-amine]",> 4.1 µM,–,1.3 µM,6.6 ± 1.7 µM,–,–,–,5.77 µM
"COc1cnc(Nc2cnnc3ccc(-c4ccc(N5CCN(C)CC5)cc4)cc23)nc1 [Compound 25a, N-(5-Methoxypyrimidin-2-yl)-6-(4-(4-methylpiperazin-1-yl)phenyl)cinnolin-4-amine]",> 4.7 µM,–,6.1 µM,1.2 ± 0.38 µM,–,–,–,9.4 µM
"CN1CCN(c2ccc(-c3ccc4c(Nc5ncc(Cl)cn5)cnnc4c3)cc2)CC1 [Compound 22b, N-(5-Chloropyrimidin-2-yl)-7-(4-(4-methylpiperazin-1-yl)phenyl)cinnolin-4-amine]",4.2 µM,–,2.3 µM,0.72 ± 0.47 µM,–,–,–,> 10 µM
